Laboratory results reported in PMC7464159, “Triple Negative Breast Cancer and Breast Epithelial Cells Differentially Reprogram Glucose and Lipid Metabolism upon Treatment with Triterpenic Acids” (Biomolecules, 2020).
Where two headings read alike, the source gives them in different places.

Legend:
[1] = test system: MDA-MB-231 cells; assay: MTT cell viability assay; assay type: cell-based; settings: Homo sapiens, mean ± SD, read-out: IC50 cell viability inhibition
Procedure: Cells were cultured in 96-well plates at 2 × 10^5 cells/mL (100 µL per well) and treated the following day with either BA or UA (0.5–50 µM), for 24 h, 48 h and 72 h. Vehicle solvent control cells received DMSO (0.25% v/v). Cell viability was estimated by the 3-(4,5-dimethylthiazol-2-yl)-2,5-diphenyltetrazolium bromide (MTT) assay as previously described by. After treatment incubation, 20 μL of MTT stock solution was added to each well (final concentration 0.5 mg/mL), and plates were incubated at 37 °C, for 4 h. Then, the medium was removed, and the formed formazan crystals were dissolved using a DMSO/ethanol (1:1) solution. Finally, absorbance of the formed product was measured at 570 nm using a microplate reader (MultiSkan FC, Thermo Fisher Scientific, Rochester, NY, USA). The IC50, defined as the concentration necessary to cause 50% inhibition of cell viability, was calculated using GraphPad Prism 5.0 (GraphPad Prism Software Inc., San Diego, CA, USA), by plotting the percentage of cell viability as a function of sample concentration logarithm. Three independent experiments were performed for each treatment.

[2] = test system: MCF-10A cells; assay: 1H NMR analysis of culture medium supernatants (exometabolome); assay type: cell-based, human
Procedure: (§1) MDA-MB-231 and MCF-10A cells were seeded in 10-cm-diameter Petri dishes at a density of 6 × 10^5 cells/mL (10 mL per dish) and cultured for 24 h at 37 °C. Cells were then incubated for 48 h with BA (5 and 15 µM) or UA (10 and 20 µM). Vehicle solvent control cells received DMSO (0.10% v/v). Samples were collected immediately after 48 h incubation or, to assess cellular recovery, medium was replaced with fresh growth medium (without TAs), and cells were incubated for additional 24 h before collection (48 + 24 h samples). Four independent assays were performed.
(§2) After incubation, culture medium was collected and centrifuged (1000× g, 5 min) and the supernatant stored at −80 °C until analysis. Culture medium without cells was placed under the same conditions and collected. Cell extraction was performed as described by Carrola et al.. Briefly, cells were washed four times with PBS and extracted with a mixture of methanol:chloroform:water (1:1:0.7). The resulting polar and organic phases were collected and then dried under vacuum or under a stream of nitrogen gas, respectively. All samples were stored at −80 °C and, at the time of analysis, dried polar extracts were reconstituted in 600 µL of deuterated phosphate buffer (100 mM, pH 7.4) containing 0.1 mM TSP-d4, while organic extracts were reconstituted in deuterated chloroform containing 0.03% TMS. Regarding medium samples, 540 μL were mixed with 60 μL of D2O containing 0.25% TSP-d4. Prior to analysis, 550 μL of each sample were transferred to 5 mm NMR tubes.
(§3) ^1H NMR spectra of all samples were acquired on a Bruker Avance III HD 500 NMR spectrometer (University of Aveiro, Portuguese NMR Network) operating at 500.13 MHz for ^1H observation equipped with a 5 mm TXI probe. Standard 1D spectra (Bruker pulse programs ‘noesypr1d’, with water suppression, for medium samples and aqueous extracts, and ‘zg’ for organic extracts) were recorded with a 7002.8 Hz spectral width, 32 k data points, a 2 s relaxation delay and 512 scans. Spectral processing comprised exponential multiplication with 0.3 Hz line broadening, zero filling to 64 k data points, manual phasing, baseline correction, and chemical shift calibration to the TSP or TMS signal at 0 ppm. 2D ^1H-^1H total correlation (TOCSY) spectra, ^1H-^13C heteronuclear single quantum correlation (HSQC) spectra and J-resolved spectra were also registered for selected samples to assist spectral assignment. Metabolites were identified with the support of 2D spectra and the spectral reference databases BBIOREFCODE-2-0-0 (Bruker Biospin, Rheinstetten, Germany) and HMDB [28]. Selected signals were then integrated using the AmixViewer software […] (version 3.9.14, Bruker BioSpin, Rheinstetten, Germany) and normalized by the total spectral area. The magnitude of each metabolite change was assessed through the percentage of variation (and its respective error) in exposed samples relatively to controls, and through the effect size (ES) adjusted for small sample numbers (and respective standard error). Metabolite variations with absolute ES greater than 0.8 were expressed in a heatmap, colored as a function of the percentage of variation, employing the R statistical software.

[3] = test system: MDA-MB-231 cells; assay: as above; assay type: cell-based, human
Procedure: as §1, §2, §3

[4] = test system: MCF-10A cells; assay: Cell cycle analysis by flow cytometry; assay type: cell-based, human; settings: 48 h
Procedure: (§4) MDA-MB-231 and MCF-10A cells were seeded in six-well plates at a density of 4 × 10^5 cells/mL (2 mL per well) and cultured for 24 h at 37 °C. […] Vehicle solvent control cells received DMSO (0.10% v/v). Then, cells were trypsinized, collected, washed with phosphate buffered saline (PBS) and fixed with 85% cold ethanol. At the time of analysis, cells were centrifuged at 300× g for 5 min at 4 °C and resuspended in PBS, before being treated with RNase (50 µg/mL) and propidium iodide staining solution (50 µg/mL) and incubated, in the dark, for at least 20 min at room temperature. Propidium iodide-stained cells were analyzed on a Coulter EPICS XL (Beckman Coulter, Hialeah, FL, USA) flow cytometer. The results were acquired using the SYSTEM II software (version 3.0 Beckman-Coulter ®, Brea, CA, USA). Four replicates were performed for each treatment, and for each sample at least 5000 nuclei were acquired. Analysis of cell cycle distribution was performed using the FlowJo software (Tree Star, Ashland, USA).

[5] = test system: MDA-MB-231 cells; assay: Cell cycle analysis by flow cytometry; assay type: cell-based, human; settings: 48 h
Procedure: as §4

[6] = test system: MCF-10A cells; assay: 1H NMR analysis of organic cell extracts (lipids); assay type: cell-based, human; settings: for levels of triglycerides: vs control cells
Procedure: as §1, §2, §3

[7] = test system: MDA-MB-231 cells; assay: 1H NMR analysis of organic cell extracts (lipids); assay type: cell-based, human; settings: 48 h; for levels of neutral lipids (cholesteryl esters and triglycerides): vs control; for plasmalogen lipids: high exposure concentration
Procedure: as §1, §2, §3

[8] = test system: MDA-MB-231 cells; parameters: method as in PMID 28213701; settings: cited from earlier work
[9] = test system: MDA-MB-231 cells; parameters: method as in PMID 28213701; settings: MDA-MB-231, 24 h incubation; read-out: IC50 reported in the literature; cited from earlier work

## C[C@H]1[C@H](C)CC[C@]2(C(=O)O)CC[C@]3(C)C(=CC[C@@H]4[C@@]5(C)CC[C@H](O)C(C)(C)[C@@H]5CC[C@]43C)[C@H]12 [UA, ursolic acid]
[1]; MDA-MB-231, 24 h
  IC50: 24.5 ± 4.61 µM
[1]; MDA-MB-231, 48 h
  IC50: 17.2 ± 0.86 µM
[1]; MDA-MB-231, 72 h
  IC50: 17.7 ± 2.81 µM
[2]; 48 h
  consumption of glucose and pyruvate: increasing the consumption
  excretion of lactate: increasing
[2]; UA, 48 h
  consumption of several amino acids: decreased
[3]; UA, 48 + 24 h
  consumption of glucose, leucine and choline: decreased consumption
  excretion of lactate, 2-oxoisovalerate, citrate, alanine and glutamate: decreased excretion
[3]; UA, 48 h
  changes in the exometabolome: no significant changes
[4]; 20 µM, vs untreated
  effect on cell cycle phases: no statistical differences
[5]; 20 µM, vs untreated
  effect on cell cycle phases: no statistical differences
[6]
  levels of triglycerides: increases
[7]
  levels of neutral lipids (cholesteryl esters and triglycerides): decreased levels
  plasmalogen lipids: decreased levels
[8]; UA 5–20 µM
  expression of glycolytic enzymes (HK2 and PKM2) and ATP content: decreased
[9]
  IC50: 22.9 µM

## C=C(C)[C@@H]1CC[C@]2(C(=O)O)CC[C@]3(C)[C@H](CC[C@@H]4[C@@]5(C)CC[C@H](O)C(C)(C)[C@@H]5CC[C@]43C)[C@@H]12 [BA, betulinic acid]
[1]; MDA-MB-231, 24 h
  IC50: 31.3 ± 5.94 µM
[1]; MDA-MB-231, 48 h
  IC50: 13.2 ± 2.3 µM
[1]; MDA-MB-231, 72 h
  IC50: 8.39 ± 0.98 µM
[2]; 48 h
  consumption of glucose and pyruvate: consumed more
  excretion of lactate: excreting more
[2]; BA, 48 + 24 h
  consumption of glucose, pyruvate and acetate: decreased
  formate excretion: increased
[2]; BA, 48 h
  consumption of several amino acids (BCAA, glutamine, phenylalanine, tyrosine): significantly reduced
  excretion of alanine and fumarate: decreased excretion
[3]; BA 5µM, 48h
  consumption of leucine: decreased significantly
[3]; BA 15µM, 48h
  glucose consumption: significant increases
[3]; BA 15 µM, 48 h (already noticed at 5 µM)
  lactate excretion: significant increases
[3]; BA, 48 + 24 h
  consumption of leucine and pyruvate: consumed less
  excretion of 2-oxoisovalerate, citrate and alanine: excreted less
  glucose consumption and lactate excretion vs untreated controls: no longer differences
[4]; 15 µM, vs control
  cells at the G0/G1 phase: decrease in the G0/G1 phase
  cells at the G2 phase: cell cycle arrest at the G2 phase
  cells at the S phase: increase in the S phase
[5]; 15 µM, vs non-exposed control
  cell population at the S phase: decreased cell population
  cells at the G2 phase: significant accumulation
[6]; BA
  levels of glycerophospholipids (including plasmalogen): decreased levels
  relative amount of free cholesterol: increased
[6]
  levels of triglycerides: increased levels
[7]
  levels of neutral lipids (cholesteryl esters and triglycerides): decreased significantly
  plasmalogen lipids: decreased
[7]; BA
  total glycerophospholipids and free cholesterol: increased
[8]; BA up to 20 µM, 24 h
  lactate levels and expression of glycolytic enzymes: did not alter
[9]
  IC50: 30.6 µM
